# According to publication PMC6405930, “Conservation of the Amyloid Interactome Across Diverse Fibrillar Structures” (Scientific Reports, 2019):
# Tests used:
# Ab1 fibrils [1] = tested on: T1, Ab1 fibrils; experiment: Determination of the binding capacity (dye depletion from supernatant); parameters: species or system human; conditions: 2 nmol dye (20 µM) with 10 μg fibril material, one hour
# T1 construct: Synthetic amyloid β peptide 1–40 was purchased from Caslo Aps (Lyngby, Denmark); purchased Caslo Aps (Lyngby, Denmark); host or cells: synthetic peptide
# Experimental: (§1) Control samples (without fibril material) were prepared similarly. Fibrils and fibril-bound ligand were pelleted by centrifugation (17,000 g, 30 min) and the supernatant (90 μL) was transferred to a 96 well half-area plate (Corning 3881).
# Ab2 fibrils [2] = tested on: T2, Ab2 fibrils; experiment: as above; parameters: species or system human; conditions: 2 nmol dye (20 µM) with 10 μg fibril material, one hour
# T2 construct: Two structurally distinct fibrils of the Aβ(1–40) peptide associated with AD
# Experimental: as §1
# C-36 fibrils [3] = molecular target: T3, C-36 fibrils (Homo sapiens, UniProt P01009); experiment: as above; conditions: 2 nmol dye (20 µM) with 10 μg fibril material, one hour
# T3 construct: the 36 residue C-terminal fragment of α1-antitrypsin (C-36)
# Experimental: as §1
# αSN fibrils [4] = molecular target: T4, αSN fibrils (Homo sapiens, UniProt P37840); experiment: as above; conditions: 2 nmol dye (20 µM) with 10 μg fibril material, one hour
# Experimental: as §1
# glucagon fibrils [5] = molecular target: T5, glucagon fibrils (Homo sapiens, UniProt P01275); experiment: as above; conditions: 2 nmol dye (20 µM) with 10 μg fibril material, one hour
# T5 construct: fibrils of the peptide hormone glucagon
# Experimental: as §1
# C-36 fibrils [6] = molecular target: T3, C-36 fibrils; experiment: Fibril incubation with plasma, quantitative MS/MS of bound proteins; assay type: binding; parameters: key to Identification status of plasma protein bound: C-36: *: Identified, but not quantified; —: Not identified in any of the samples; conditions: for Relative composition of plasma proteins bound: C-36: 50:1 w/w plasma protein:fibril
# Experimental: (§2) Plasma and CSF solutions were centrifuged (40,000 g, 20 min) to remove any aggregates. The protein concentration was determined using 280 nm absorbance assuming 1 Abs = 1 mg/mL. […] Control samples (without fibril material) were prepared similarly. All samples were incubated at room temperature for one hour under gentle agitation. Fibrils and fibril-bound proteins were pelleted by centrifugation at 17,000 g for 30 minutes. The supernatant (175 μL) was removed and the aggregate was re-suspended in 175 μL PBS and pelleted again before further preparation for gel analysis and spin-filter assisted digest for quantitative MS/MS.
# (§3) The fibril-protein pellets were transferred to spin-filters (0.22 μm), washed twice in PBS (100 μL) and once in 1 M NaCl (100 μL). The fibrils and fibril-bound proteins were dissolved by one-hour incubation in 100 μL 6 M guanidinium chloride followed by elution from the spin-filter. The eluted proteins were loaded onto a 3 kDa MWCO filter unit for filter-assisted unfolding, reduction, alkylation, and trypsin digestion. In brief, samples were washed twice in 8 M urea, once in 8 M urea with 50 mM DTT, once in 8 M urea with 50 mM iodoaceteamide, and twice in 8 M Urea. The filter units were dried by centrifugation (14,000 g in 30 minutes) after every addition. Trypsin digestion was carried out with 0.25 μg sequencing grade trypsin from Sigma Aldrich in 50 mM ammonium bicarbonate overnight at 37 °C. The tryptic peptides were collected by centrifugation, acidified with TFA (0.1%) and micro-purified using POROS R2 column material (Applied Biosystems) packed in P200 pipette tips (Sarstedt).
# (§4) LC-MS/MS analyses were performed on an EASY-nLC II system (Thermo Fisher Scientific) connected to a TripleTOF 5600+ mass spectrometer (Sciex) equipped with a NanoSpray III source (Sciex) and operated under Analyst TF 1.6.0 control.
# (§5) The micro-purified tryptic peptides were dissolved in 0.1% formic acid, injected and trapped on an in-house packed trap column (2 cm × 100 μm I.D) with RP ReproSil-Pur C18-AQ 3 μm resin (Dr. Maisch GmbH). Peptides were eluted from the trap column and separated on a 15 cm analytical column (75 μm i.d.) packed in-house in a pulled emitter with RP ReproSil-Pur C18-AQ 3 μm resin (Dr. Maisch GmbH). Elution from the analytical column was performed with a linear gradient from 5% to 35% phase B (90% acetonitrile with 0.1% formic acid) over 20 min for protein identification and 50 min for quantitative analysis, respectively.
# (§6) All samples were analysed three times, yielding nine MS/MS experiments for each fibril for both plasma and CSF. For the area-based extracted ion chromatogram (XIC) quantification, the acquisition method was set up as an information-dependent acquisition (IDA) experiment collecting up to 25 MS/MS spectra in each 1.6 sec cycle using an exclusion window of 6 sec.
# (§7) XIC quantification was based on the average ion intensity of the three most abundant peptides for each protein. Only proteins quantified in at least four out of nine MS/MS experiments per fibril were included in the quantification. The total ion scores were visualized after grouping the proteins according to function (Figure S11).
# (§8) For each MS/MS experiment, the ion intensities of the individual proteins were normalized to the total ion intensity of that MS/MS experiment to achieve a relative protein composition. The contribution of each protein was averaged over all nine MS/MS experiments (Tables 1 and 2).
# Ab2 fibrils [7] = tested on: T2, Ab2 fibrils; experiment: Fibril incubation with CSF, quantitative MS/MS of bound proteins; assay type: binding, human; parameters: key to Identification status of CSF protein bound: Ab2: *: Identified, but not quantified; —: Not identified in any of the samples; conditions: for Identification status of CSF protein bound: Ab2: symbol cells; for Relative composition of CSF proteins bound: Ab2: 4:1 w/w CSF protein:fibril
# Experimental: as §2, §3, §4, §5, §6, §7, §8
# FAS4-AD aggregates [8] = tested on: T6, FAS4-AD aggregates; experiment: as above; assay type: binding, human; parameters: key to Identification status of CSF protein bound: FAS4-AD: *: Identified, but not quantified; —: Not identified in any of the samples; conditions: for Identification status of CSF protein bound: FAS4-AD: symbol cells
# T6 construct: aggregates of a mutated version of the FAS1-4 domain of TGFBIp
# Experimental: as §2, §3, §4, §5, §6, §7, §8
# glucagon fibrils [9] = molecular target: T5, glucagon fibrils; experiment: Fibril incubation with plasma, quantitative MS/MS of bound proteins; assay type: binding; conditions: 50:1 w/w plasma protein:fibril
# Experimental: as §2, §3, §4, §5, §6, §7, §8
# αSN fibrils [10] = molecular target: T4, αSN fibrils; experiment: as above; assay type: binding; parameters: key to Identification status of plasma protein bound: αSN: *: Identified, but not quantified; —: Not identified in any of the samples; conditions: for Identification status of plasma protein bound: αSN: symbol cells
# Experimental: as §2, §3, §4, §5, §6, §7, §8
# FAS4-AD aggregates [11] = tested on: T6, FAS4-AD aggregates; experiment: as above; assay type: binding, human; parameters: key to Identification status of plasma protein bound: FAS4-AD: *: Identified, but not quantified; —: Not identified in any of the samples; conditions: for Identification status of plasma protein bound: FAS4-AD: symbol cells; for Relative composition of plasma proteins bound: FAS4-AD: 50:1 w/w plasma protein:fibril
# Experimental: as §2, §3, §4, §5, §6, §7, §8
# Ab1 fibrils [12] = tested on: T1, Ab1 fibrils; experiment: as above; assay type: binding, human; conditions: 50:1 w/w plasma protein:fibril
# Experimental: (§9) Plasma and CSF solutions were centrifuged (40,000 g, 20 min) to remove any aggregates. The protein concentration was determined using 280 nm absorbance assuming 1 Abs = 1 mg/mL. […] Control samples (without fibril material) were prepared similarly. All samples were incubated at room temperature for one hour under gentle agitation. Fibrils and fibril-bound proteins were pelleted by centrifugation at 17,000 g for 30 minutes. The supernatant (175 μL) was removed and the aggregate was re-suspended in 175 μL PBS and pelleted again before further preparation for gel analysis and spin-filter assisted digest for quantitative MS/MS.
# as §3, §4, §5, §6, §7, §8
# αSN fibrils [13] = molecular target: T4, αSN fibrils; experiment: Fibril incubation with CSF, quantitative MS/MS of bound proteins; assay type: binding; parameters: key to Identification status of CSF protein bound: αSN: *: Identified, but not quantified; —: Not identified in any of the samples; conditions: for Identification status of CSF protein bound: αSN: symbol cells
# Experimental: as §2, §3, §4, §5, §6, §7, §8
# Ab1 fibrils [14] = tested on: T1, Ab1 fibrils; experiment: as above; assay type: binding, human; conditions: 4:1 w/w CSF protein:fibril
# Experimental: as §2, §3, §4, §5, §6, §7, §8
# glucagon fibrils [15] = molecular target: T5, glucagon fibrils; experiment: as above; assay type: binding; conditions: 4:1 w/w CSF protein:fibril
# Experimental: as §2, §3, §4, §5, §6, §7, §8
# C-36 fibrils [16] = molecular target: T3, C-36 fibrils; experiment: as above; assay type: binding; parameters: key to Identification status of CSF protein bound: C-36: *: Identified, but not quantified; —: Not identified in any of the samples; conditions: for Relative composition of CSF proteins bound: C-36: 4:1 w/w CSF protein:fibril; for Identification status of CSF protein bound: C-36: symbol cells
# Experimental: as §2, §3, §4, §5, §6, §7, §8
# Ab2 fibrils [17] = tested on: T2, Ab2 fibrils; experiment: Fibril incubation with plasma, quantitative MS/MS of bound proteins; assay type: binding, human; conditions: 50:1 w/w plasma protein:fibril
# Experimental: as §2, §3, §4, §5, §6, §7, §8
# [18] = tested on: fibril systems (Ab1, Ab2, glucagon, αSN and C-36); experiment: Fibril incubation with plasma, quantitative MS/MS, span over the fibril systems; assay type: binding, human
# Experimental: as §9
# The fibril-protein pellets were transferred to spin-filters (0.22 μm), washed twice in PBS (100 μL) and once in 1 M NaCl (100 μL). The fibrils and fibril-bound proteins were dissolved by one-hour incubation in 100 μL 6 M guanidinium chloride followed by elution from the spin-filter. […]
# as §5, with “Peptides were eluted from the trap column and separated on a 15 cm analytical column (75 μm i.d.) packed in-house in a pulled emitter with RP ReproSil-Pur C18-AQ 3 μm resin (Dr. Maisch GmbH).” left out
# as §6, with “sec. […]” for “sec.”
# XIC quantification was based on the average ion intensity of the three most abundant peptides for each protein. Only proteins quantified in at least four out of nine MS/MS experiments per fibril were included in the quantification. […]
# T3 sequence (P01009 383-418 limits assumed): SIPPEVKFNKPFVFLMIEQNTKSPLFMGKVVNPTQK
# T5 sequence (P01275 53-81 limits assumed): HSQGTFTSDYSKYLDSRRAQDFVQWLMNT
Compound,Relative composition of plasma proteins bound: C-36 (C-36 fibrils [6]),Identification status of CSF protein bound: Ab2 (Ab2 fibrils [7]),Identification status of CSF protein bound: FAS4-AD (FAS4-AD aggregates [8]),Relative composition of plasma proteins bound: Glucagon (glucagon fibrils [9]),Identification status of plasma protein bound: αSN (αSN fibrils [10]),Identification status of plasma protein bound: FAS4-AD (FAS4-AD aggregates [11]),Relative composition of plasma proteins bound: Ab1 (Ab1 fibrils [12]),Identification status of CSF protein bound: αSN (αSN fibrils [13]),Relative composition of CSF proteins bound: Ab1 (Ab1 fibrils [14]),Relative composition of CSF proteins bound: Glucagon (glucagon fibrils [15]),Relative composition of CSF proteins bound: C-36 (C-36 fibrils [16]),Relative composition of plasma proteins bound: Ab2 (Ab2 fibrils [17]),Relative composition of plasma proteins bound: FAS4-AD (FAS4-AD aggregates [11]),Identification status of CSF protein bound: C-36 (C-36 fibrils [16]),Relative composition of CSF proteins bound: Ab2 (Ab2 fibrils [7]),also measured
"O=C(O)c1cc(/C=C/c2ccc(/C=C/c3ccc(O)c(C(=O)O)c3)c(F)c2)ccc1O [FSB, (E,E)-1-fluoro-2,5-bis-(3-hydroxycarbonyl-4-hydroxy)styrylbenzene]",,,,,,,,,,,,,,,,Ligand bound (binding capacity) (Ab1 fibrils [1]): 45 nmol/mg fibril; Ligand bound (binding capacity) (Ab2 fibrils [2]): 54 nmol/mg fibril; Ligand bound (binding capacity) (C-36 fibrils [3]): 197 nmol/mg fibril; Ligand bound (binding capacity) (αSN fibrils [4]): 123 nmol/mg fibril; Ligand bound (binding capacity) (glucagon fibrils [5]): 128 nmol/mg fibril
Complement C1s subcomponent: plasma/CSF protein bound to fibrils,0.4 ± 0.1 % of total protein,*,—,0.2 ± 0.0 % of total protein,*,—,0.3 ± 0.0 % of total protein,—,0.2 ± 0.0 % of total protein,0.2 ± 0.0 % of total protein,0.7 ± 0.2 % of total protein,0.7 ± 0.1 % of total protein,,,,
α1-antitrypsin: plasma/CSF protein bound to fibrils,,*,*,0.6 ± 0.0 % of total protein,*,,0.4 ± 0.0 % of total protein,*,0.5 ± 0.2 % of total protein,1.0 ± 0.2 % of total protein,,0.4±0.0 % of total protein,1.4 ± 0.5 % of total protein,*,,Identification status of plasma protein bound: C-36 (C-36 fibrils [6]; symbol cells): *
Complement C3: plasma/CSF protein bound to fibrils,0.2 ± 0.0 % of total protein,,—,2.3 ± 0.2 % of total protein,*,*,0.4 ± 0.0 % of total protein,—,0.3 ± 0.1 % of total protein,0.8 ± 0.2 % of total protein,,0.6 ± 0.1 % of total protein,,*,0.3 ± 0.1 % of total protein,
Apolipoprotein D: plasma/CSF protein bound to fibrils,0.9 ± 0.1 % of total protein,,,0.3 ± 0.1 % of total protein,*,,0.1 ± 0.0 % of total protein,,8.7 ± 0.4 % of total protein,1.8 ± 0.3 % of total protein,9.0 ± 2.3 % of total protein,0.3 ± 0.0 % of total protein,1.1 ± 0.1 % of total protein,,11.2 ± 0.6 % of total protein,Relative composition of CSF proteins bound: FAS4-AD (FAS4-AD aggregates [8]; 4:1 w/w CSF protein:fibril): 5.7 ± 0.4 % of total protein; Relative composition of CSF proteins bound: αSN (αSN fibrils [13]; 4:1 w/w CSF protein:fibril): 3.4 ± 0.5 % of total protein
Apolipoprotein B-100: plasma protein bound to fibrils,0.1 ± 0.0 % of total protein,,,0.4 ± 0.0 % of total protein,,*,0.6 ± 0.1 % of total protein,,,,,0.5 ± 0.2 % of total protein,,,,contribution to the fibril interactomes [18]: 0.4%; Relative composition of plasma proteins bound: αSN (αSN fibrils [10]; 50:1 w/w plasma protein:fibril): 0.2 ± 0.1 % of total protein
